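1) Cells in 96-well plates. 2) Compound, 48 h, 5 concentrations. 3) Linear interpolation between surrounding doses. 4) Unreached endpoint = highest concentration. GI50 marks 50% less growth.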 Calls of active or inactive are those of the source. Cut-off read from the data, not from the text of the source: active = GI50 up to about 1.1 µM and inactive = higher. A value given as a limit tells only on which side of the number the result lay.

From ChEMBL document CHEMBL1201862, “PubChem BioAssay data set” (2004) come the findings set out here.

Test systems include NCI-H23; HCT-15; MCF7; A549; DU-145; A498; RXF 393; NCI-H460; 786-0; U-251; UACC-62; Malme-3M; SNB-19; HCC 2998; NCI-H226; SNB-75; UO-31; SF-295; LOX IMVI; BT-549.
What all share (test): NCI-60 cell line screen, 48 h

For `CC(=O)C(C(C)=O)=C1CCCC(O)O1` (stereo not given), the GI50 in the assay with NCI-H23 is > 100 µM (inactive); with HCT-15, above 100 µM; in the assay on MCF7, > 100 µM (inactive); in the assay with A549 it was > 100 µM (inactive); in the assay on DU-145 it was > 100 µM (inactive); in the assay on A498, > 100 µM (inactive). The GI50 in the assay with RXF 393, with NCI-H460, in the assay with 786-0, with U-251, with UACC-62 and with Malme-3M was > 100 µM (inactive) in each case. The GI50 in the assay on SNB-19, with HCC 2998, with NCI-H226, with SNB-75, in the assay on UO-31 and in the assay on SF-295 was > 100 µM (inactive) throughout.

`O=C(O)CSc1nc2ccccc2[nH]1`: the GI50 is > 100 µM (inactive) in the assay with NCI-H23; above 100 µM with HCT-15; > 100 µM (inactive) in the assay on A549; > 100 µM (inactive) in the assay with DU-145; > 100 µM (inactive) with A498; > 100 µM (inactive) with RXF 393. The GI50 in the assay with NCI-H460, in the assay with 786-0, in the assay with U-251, with UACC-62, in the assay on Malme-3M and with SNB-19 was > 100 µM (inactive) throughout. The GI50 in the assay with HCC 2998, in the assay on SNB-75, in the assay on LOX IMVI, with UO-31, in the assay on SF-295 and in the assay with BT-549 was > 100 µM (inactive) each time.

On to `CC(NC1=NCCO1)c1ccco1` (stereo not given), for which the GI50 in the assay with NCI-H23 is > 100 µM (inactive); with HCT-15, above 100 µM; in the assay with MCF7, > 100 µM (inactive); in the assay on A549, > 100 µM (inactive); in the assay on DU-145, > 100 µM (inactive); in the assay with A498 it was > 100 µM (inactive). Besides, the GI50 with RXF 393, in the assay with NCI-H460, in the assay on 786-0, in the assay with U-251, in the assay with UACC-62 and with Malme-3M was > 100 µM (inactive) throughout. Also, the GI50 in the assay with SNB-19, with HCC 2998, in the assay with NCI-H226, in the assay on LOX IMVI, in the assay on UO-31 and with SF-295 was > 100 µM (inactive) throughout.

As for `CCCCC1CCCCCCc2[nH]c(/C=C3\N=C(c4ccc[nH]4)C=C3OC)cc21` (stereo not given), the GI50 in the assay on NCI-H23 is < 0.0221 µM (active); in the assay on HCT-15 it was below 0.01 µM; with MCF7, < 0.0139 µM (active); with A549 it was < 0.0139 µM (active); in the assay with DU-145, < 0.0109 µM (active); with A498, 0.515 µM (active). Besides, the GI50 was 0.078 µM (active) with RXF 393; < 0.01 µM (active) in the assay on NCI-H460; < 0.01 µM (active) in the assay with 786-0; < 0.0122 µM (active) in the assay on U-251; < 0.0127 µM (active) in the assay on UACC-62; 0.0241 µM (active) with Malme-3M. Further, the GI50 in the assay with SNB-19 was 0.151 µM (active); with HCC 2998, < 0.01 µM (active); in the assay with NCI-H226 it was 0.205 µM (active); in the assay with SNB-75, < 0.0306 µM (active); in the assay on LOX IMVI, < 0.01 µM (active); in the assay on UO-31 it was 0.0194 µM (active). For the same compound, the GI50 with SF-295 was < 0.0191 µM (active).

For the compound `SC1=C2CCCCCC2=NC2(CCCCCC2)S1`, the GI50 in the assay on NCI-H23 was 9.12 µM (inactive); in the assay on HCT-15, 37.1 µM; with MCF7 it was 19 µM (inactive); in the assay with A549 it was 24.5 µM (inactive); in the assay on DU-145, 30.8 µM (inactive); in the assay on RXF 393, 32.6 µM (inactive). The GI50 in the assay on NCI-H460 was 17.3 µM (inactive); in the assay with 786-0 it was 33.1 µM (inactive); with U-251 it was 32 µM (inactive); in the assay with UACC-62, 26.8 µM (inactive); in the assay with Malme-3M, 22 µM (inactive); in the assay on SNB-19, 25.8 µM (inactive). Further, the GI50 with HCC 2998 is 23.3 µM (inactive); with NCI-H226, 12.4 µM (inactive); in the assay with SNB-75, 19.2 µM (inactive); in the assay with LOX IMVI it was 29.4 µM (inactive); with UO-31, 11.6 µM (inactive); in the assay with SF-295 it was 23.6 µM (inactive).

In the case of `CC1=NN(c2nc(N)nc(/C(C#N)=C\C3COc4ccccc4C3=O)n2)C(C)(C)C1` (stereo not given), the GI50 with NCI-H23 is 27 µM (inactive); in the assay on HCT-15, 22.9 µM; in the assay with MCF7, 32.4 µM (inactive); with DU-145 it was 31.6 µM (inactive); in the assay with A498, 17.9 µM (inactive); in the assay with RXF 393 it was 16.4 µM (inactive). Moreover, the GI50 was 26.9 µM (inactive) in the assay on NCI-H460; 19.2 µM (inactive) in the assay with 786-0; 24.5 µM (inactive) in the assay on U-251; 30.4 µM (inactive) with HCC 2998; 22.8 µM (inactive) in the assay with NCI-H226; 27.2 µM (inactive) in the assay on LOX IMVI. Moreover, the GI50 with UO-31 is 18.9 µM (inactive); in the assay on SF-295, 31.3 µM (inactive).

As for `CCOC(=O)Cc1csc(NC(NC(=O)OCC)(C(=O)OCC)C(F)(F)F)n1` (stereo not given), the GI50 with NCI-H23 was > 100 µM (inactive); in the assay with HCT-15 it was above 100 µM; in the assay with MCF7, > 100 µM (inactive); in the assay on A549, > 100 µM (inactive); in the assay on DU-145, > 100 µM (inactive); in the assay on A498 it was > 100 µM (inactive). For the same compound, the GI50 in the assay on RXF 393, in the assay with NCI-H460, in the assay with 786-0, in the assay on U-251, in the assay on Malme-3M and in the assay on SNB-19 was > 100 µM (inactive) each time. The GI50 in the assay on HCC 2998, in the assay on NCI-H226, with SNB-75, in the assay with LOX IMVI, in the assay on UO-31 and in the assay on SF-295 was > 100 µM (inactive) throughout.

As to `O=C(/C(=C/c1ccccc1)c1ccccc1)N1c2ccccc2CC1c1c[nH]c2ccccc12` (stereo not given), the GI50 with NCI-H23 was 15 µM (inactive); in the assay on HCT-15, 7.76 µM; in the assay on A549, 11 µM (inactive); in the assay on A498, > 100 µM (inactive); in the assay on RXF 393, 6.07 µM (inactive); with NCI-H460, 7.48 µM (inactive). Besides, the GI50 in the assay on 786-0 is > 100 µM (inactive); in the assay on U-251, 9.53 µM (inactive); with UACC-62, > 100 µM (inactive); in the assay with Malme-3M it was 28.5 µM (inactive); in the assay with SNB-19 it was 23.7 µM (inactive); in the assay on HCC 2998, > 100 µM (inactive). Besides, the GI50 is 41.1 µM (inactive) in the assay on NCI-H226; > 100 µM (inactive) in the assay with SNB-75; 21.6 µM (inactive) with LOX IMVI; 5.11 µM (inactive) in the assay with UO-31; 7.62 µM (inactive) with SF-295.

For `Cc1nc2ccccc2c(=O)n1/N=C(\N=N\c1cc(Cl)ccc1Cl)c1cccc(-c2ccco2)c1`, the GI50 in the assay on NCI-H23 was > 100 µM (inactive); with HCT-15, 74.6 µM; with A549 it was > 100 µM (inactive); with A498, > 100 µM (inactive); in the assay on RXF 393 it was 67.8 µM (inactive); with NCI-H460, > 100 µM (inactive). Also, the GI50 is > 100 µM (inactive) with 786-0; > 100 µM (inactive) with U-251; 48.1 µM (inactive) in the assay on UACC-62; > 100 µM (inactive) with Malme-3M; > 100 µM (inactive) with SNB-19; > 100 µM (inactive) in the assay with HCC 2998. Also, the GI50 in the assay on NCI-H226 was > 100 µM (inactive); in the assay with SNB-75 it was > 100 µM (inactive); with LOX IMVI it was > 100 µM (inactive); in the assay on UO-31, 37.7 µM (inactive); in the assay with SF-295, > 100 µM (inactive).

Consider `N#CC1(C#N)C2C=CC(C3CC=CC32)C1(C#N)C#N` (stereo not given), for which the GI50 in the assay with NCI-H23 is 8.32 µM (inactive); with HCT-15 it was 1.98 µM; with MCF7 it was 6.52 µM (inactive); in the assay with A549, 10.7 µM (inactive); in the assay on DU-145 it was 9.55 µM (inactive); with A498, 9.84 µM (inactive). Moreover, the GI50 is 5.16 µM (inactive) with RXF 393; > 50 µM (inactive) in the assay on NCI-H460; 1.79 µM (inactive) with 786-0; 10.4 µM (inactive) in the assay on U-251; 8.77 µM (inactive) in the assay with UACC-62; 2.79 µM (inactive) with Malme-3M. Moreover, the GI50 with SNB-19 is > 50 µM (inactive); in the assay with HCC 2998, > 50 µM (inactive); with NCI-H226, > 50 µM (inactive); in the assay with SNB-75, > 10 µM (inactive); in the assay on LOX IMVI, 8.59 µM (inactive); with UO-31 it was 2.17 µM (inactive). Also, in the assay with SF-295, the GI50 is 21.5 µM (inactive).

In the case of `CC(=O)OC12CCCCC1C1(CCCC1)NC2=O` (stereo not given), the GI50 is > 100 µM (inactive) in the assay on NCI-H23; above 100 µM in the assay with HCT-15; > 100 µM (inactive) in the assay with A549; > 100 µM (inactive) in the assay on A498; > 100 µM (inactive) in the assay on RXF 393; > 100 µM (inactive) in the assay on NCI-H460. Further, the GI50 in the assay on 786-0, in the assay with U-251, with UACC-62, in the assay on Malme-3M, in the assay with SNB-19 and in the assay on HCC 2998 was > 100 µM (inactive) throughout. The GI50 in the assay on NCI-H226, in the assay with SNB-75, with LOX IMVI, in the assay on UO-31 and in the assay with SF-295 was > 100 µM (inactive) each time.

For the compound `Cc1ccccc1-n1c2nc(=O)n(C)c(=O)c-2nc2ccccc21`, the GI50 in the assay on NCI-H23 was 10.1 µM (inactive); in the assay on HCT-15, 11.1 µM; in the assay on A549 it was 13.2 µM (inactive); in the assay with A498 it was 31.8 µM (inactive); with RXF 393, 17.2 µM (inactive); in the assay on NCI-H460, 9.55 µM (inactive). Besides, the GI50 in the assay on 786-0 is 15.8 µM (inactive); in the assay on U-251 it was 17.3 µM (inactive); with UACC-62, 3.48 µM (inactive); in the assay on Malme-3M, 5.58 µM (inactive); with SNB-19, 14.6 µM (inactive); with HCC 2998, 10.8 µM (inactive). The GI50 in the assay on NCI-H226 is 21 µM (inactive); in the assay on SNB-75, 20.1 µM (inactive); with LOX IMVI, 15.7 µM (inactive); in the assay with UO-31, 29.1 µM (inactive); in the assay on SF-295, 14.2 µM (inactive).
